Assay results published in publication PMC9308172 (Journal of medicinal chemistry, 2017).
Where two headings read alike, the source gives them in different places.

How the values were obtained:
[1] = test system: A/California/07/2009 (H1N1) M2: N31; settings: cited from earlier work
M2TMWT [2] = molecular target: T1, M2TMWT (Influenza A virus, UniProt P0DOF5); settings: cited from earlier work
M2TMWT [3] = molecular target: T1, M2TMWT; assay type: binding

T1 sequence (P0DOF5 22-46 limits assumed): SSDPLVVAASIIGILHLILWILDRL

Row | Structure (SMILES) | % block after 3 min [1] | TΔS (M2TMWT [2]) | ΔG (M2TMWT [2]) | ΔH (M2TMWT [2]) | % block after 30 min [1] | ΔG (M2TMWT [3])
1 | NC12CC3CC(CC(C3)C1)C2 [Compound 1, Amantadine, reference compound] | 14 ± 2 (100 μM; 26) % | 1.11 ± 0.521 kcal/mol | -7.77 ± 0.141 kcal/mol | -6.661 ± 0.5 kcal/mol |  | 
2 | NC1C2CC3CC(C2)CC1C3 (stereo not drawn) [Compound 2] | 13 ± 3 (100 μM; 2) % | 0.93 ± 0.44 kcal/mol | -7.959 ± 0.129 kcal/mol | -7.029 ± 0.421 kcal/mol | 16 (100 μM; 1) % | 
3 | CC1(N)C2CC3CC(C2)CC1C3 (stereo not drawn) [Compound 3] |  | 1.51 ± 0.289 kcal/mol | -8.31 ± 0.129 kcal/mol | -6.79 ± 0.261 kcal/mol |  | 
4 | CCC1(N)C2CC3CC(C2)CC1C3 (stereo not drawn) [Compound 4] |  | 1.38 ± 0.251 kcal/mol | -8.521 ± 0.129 kcal/mol | -7.139 ± 0.21 kcal/mol |  | 
5 | CCCC1(N)C2CC3CC(C2)CC1C3 (stereo not drawn) [Compound 5] | 0 ± 5 (100 μM; 2) % | 0.932 ± 0.347 kcal/mol | -8.707 ± 0.165 kcal/mol | -7.796 ± 0.308 kcal/mol | 9 ± 10 (100 μM, 3) % | 
6 | C1CNC2(C1)C1CC3CC(C1)CC2C3 (stereo not drawn) [Compound 6] |  | 3.97 ± 0.614 kcal/mol | -9.109 ± 0.44 kcal/mol | -5.136 ± 0.421 kcal/mol |  | 
7 | CN1CCCC12C1CC3CC(C1)CC2C3 (stereo not drawn) [Compound 7] |  | 4.46 ± 0.361 kcal/mol | -8.279 ± 0.229 kcal/mol | -3.819 ± 0.28 kcal/mol |  | 
8 | CC12CC3CC(CC(C3)C13CCCN3)C2 (stereo not drawn) [Compound 8, 1′-Methylspiro[pyrrolidine-2,2′-adamantane]] |  | 3 ± 0.37 kcal/mol | -8.081 ± 0.201 kcal/mol | -5.079 ± 0.311 kcal/mol |  | 
9 | NC1(C23CC4CC(CC(C4)C2)C3)CCCC1 [Compound 9] |  |  |  |  |  | -6.637 ± 0.189 kcal/mol
